Test results from patent US6040434A, “Aldehyde oxidase inhibitors for treatment of aids” (priority 1997, dated 2000).

Assays:
[1] = test system: microsomal cytochrome P450 isozymes and microsomal NADPH-cytochrome P450 reductase; conditions: in words; Eagling (1994); cited from earlier work
retroviral replication = conditions: cited from earlier work
bone marrow = conditions: cited from earlier work
[2] = test system: S9 fraction of human liver; assay: AMT formation from AZT by human liver S9 fraction / human liver samples; type: in vitro ADME
Text: (§1) Hamster livers were processed by the same method.
(§2) This reduced the experimental variability and simplified the procedure. […] The method was as follows.
(§3) AMT formation by a human liver S9 fraction was compared with that by a hamster liver S9 fraction, as the hamster has the highest documented level of liver aldehyde oxidase activity (Kitamura, 1984; by Sugihara, 1996).

[3] = molecular target: T1, S9 fraction of human liver (Homo sapiens, UniProt Q06278); assay: as above; type: in vitro ADME; conditions: human liver samples; conversion of AZT to AMT
T1 construct: Human liver samples stored at -70° C. were partially thawed, homogenized; from tissue; host or cells: human liver, S9 fraction (9000 g supernatant)
T1 sequence (Q06278 1-1338): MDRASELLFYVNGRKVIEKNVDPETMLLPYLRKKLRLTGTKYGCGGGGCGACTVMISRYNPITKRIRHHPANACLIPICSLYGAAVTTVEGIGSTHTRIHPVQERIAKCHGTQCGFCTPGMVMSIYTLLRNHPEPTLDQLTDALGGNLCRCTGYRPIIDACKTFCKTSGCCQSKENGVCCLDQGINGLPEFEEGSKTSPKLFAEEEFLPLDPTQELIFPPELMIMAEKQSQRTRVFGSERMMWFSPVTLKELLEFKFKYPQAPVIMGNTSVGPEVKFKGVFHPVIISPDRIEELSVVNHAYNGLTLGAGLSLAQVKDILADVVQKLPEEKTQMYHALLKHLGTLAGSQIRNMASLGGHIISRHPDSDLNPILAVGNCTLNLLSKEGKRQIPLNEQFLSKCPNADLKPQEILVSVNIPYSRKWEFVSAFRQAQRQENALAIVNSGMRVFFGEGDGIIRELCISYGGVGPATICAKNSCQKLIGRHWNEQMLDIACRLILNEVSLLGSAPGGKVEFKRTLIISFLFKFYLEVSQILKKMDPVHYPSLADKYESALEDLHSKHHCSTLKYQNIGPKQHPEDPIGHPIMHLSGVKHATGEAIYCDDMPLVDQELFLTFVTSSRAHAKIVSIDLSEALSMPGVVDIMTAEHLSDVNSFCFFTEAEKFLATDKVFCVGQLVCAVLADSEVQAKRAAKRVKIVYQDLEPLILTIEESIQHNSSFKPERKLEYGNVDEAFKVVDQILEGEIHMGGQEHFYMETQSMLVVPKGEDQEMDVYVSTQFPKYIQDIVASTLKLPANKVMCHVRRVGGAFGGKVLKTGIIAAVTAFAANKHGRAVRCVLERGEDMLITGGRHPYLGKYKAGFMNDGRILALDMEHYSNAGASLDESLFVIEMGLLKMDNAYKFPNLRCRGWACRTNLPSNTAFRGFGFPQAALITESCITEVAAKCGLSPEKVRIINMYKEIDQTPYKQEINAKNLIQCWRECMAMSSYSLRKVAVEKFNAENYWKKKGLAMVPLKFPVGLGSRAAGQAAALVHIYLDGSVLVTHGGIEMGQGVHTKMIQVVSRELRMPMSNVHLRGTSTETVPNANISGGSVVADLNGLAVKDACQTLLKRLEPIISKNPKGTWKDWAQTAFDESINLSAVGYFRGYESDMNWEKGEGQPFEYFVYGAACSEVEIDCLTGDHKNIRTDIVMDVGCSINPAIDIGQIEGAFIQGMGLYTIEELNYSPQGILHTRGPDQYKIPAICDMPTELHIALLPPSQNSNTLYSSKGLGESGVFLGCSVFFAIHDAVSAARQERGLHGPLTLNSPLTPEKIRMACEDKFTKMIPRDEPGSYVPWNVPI
Text: as §1, §2, §3

[4] = in words; Veal et al., 1995; cited from earlier work

Structure (SMILES): Cc1cn([C@H]2C[C@H](N=[N+]=[N-])[C@@H](CO)O2)c(=O)[nH]c1=O [AZT, 3'-azido-3'-deoxythymidine]
- conversion of AZT to AMT by human liver microsomes [1]: the conversion was mediated by both microsomal cytochrome P450 isozymes and microsomal NADPH-cytochrome P450 reductase
- inhibition of retroviral replication (retroviral replication): potent inhibitor of retroviral replication
- patients treated with AZT suffering bone marrow toxicity (bone marrow; depending on dosage and disease stage): up to 51%
- side-effect of bone marrow toxicity (bone marrow; in words): bone marrow toxicity, resulting in granulocytopenia and anemia
- share of AMT formation due to microsomal enzyme activity [2]: less than 10%
- share of AMT formation due to cytosolic aldehyde oxidase (2-OHP-dependent) [3]: ≥ 90%
- pathways of metabolism and elimination [4]: The predominant pathway of metabolism is by glucuronide formation and renal excretion
